Results reported in the supplement of paper PMC4862054.

Experiments:
Assay in all cases: normalised response (% of control), CellTiter-Glo; higher = more viable cells (100 = DMSO, 0 = benzethonium chloride kill control)
Conditions in all cases: incubation time: 72 h
[1] = test system: CAL-51
Experimental: (§1)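 DSRT, 72 h incubation, CellTox Green / CellTiter-Glo readout. Signal is normalised to DMSO and benzethonium chloride controls. Value is the normalised response at the highest dose.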

[2] = test system: HCC1937
Experimental: as §1

[3] = test system: MFM-223
Experimental: as §1

[4] = test system: MCF-10A
Experimental: as §1

[5] = test system: Hs578T
Experimental: as §1

[6] = test system: SK-BR-3
Experimental: as §1

[7] = test system: CAL-120
Experimental: as §1

[8] = test system: BT-474
Experimental: as §1

[9] = test system: MDA-MB-231
Experimental: as §1

[10] = test system: MDA-MB-436
Experimental: as §1

[11] = test system: HCC1143
Experimental: as §1

[12] = test system: MDA-MB-468
Experimental: as §1

[13] = test system: HCC1599
Experimental: as §1

[14] = test system: MDA-MB-453
Experimental: as §1

[15] = test system: DU-4475
Experimental: as §1

[16] = test system: BT-549
Experimental: as §1

[17] = test system: HDQ-P1
Experimental: as §1

[18] = test system: CAL-148
Experimental: as §1

| Compound | normalised response [1] [%] | normalised response [2] [%] | normalised response [3] [%] | normalised response [4] [%] | normalised response [5] [%] | normalised response [6] [%] | normalised response [7] [%] | normalised response [8] [%] | normalised response [9] [%] | normalised response [10] [%] | normalised response [11] [%] | normalised response [12] [%] | normalised response [13] [%] | normalised response [14] [%] | normalised response [15] [%] | normalised response [16] [%] | normalised response [17] [%] | normalised response [18] [%] |
| --- | --- | --- | --- | --- | --- | --- | --- | --- | --- | --- | --- | --- | --- | --- | --- | --- | --- | --- |
| CC[C@]1(O)C[C@@H]2CN(CCc3c([nH]c4ccccc34)[C@@](C(=O)OC)(c3cc4c(cc3OC)N(C)[C@H]3[C@@](O)(C(=O)OC)[C@H](OC(C)=O)[C@]5(CC)C=CCN6CC[C@]43[C@@H]65)C2)C1 [Vinblastine] (1000 nM) | 23.9 | 69.3 | 44.6 | 71.6 | 15.3 | 17.6 | 59.1 | 46.8 | 43.4 | 22.6 | 50.2 | 33.9 | 12.6 | 64.7 | 37.8 | 34.3 | 70.6 | 55.3 |
| Cc1ccc(F)c(NC(=O)Nc2ccc(-c3cccc4[nH]nc(N)c34)cc2)c1 [Linifanib] (1000 nM) | 91.6 | 103 | 108 | 106 | 101 | 108 | 109 | 101 | 109 | 111 | 108 | 108 | 105 | 110 | 106 | 103 | 115 | 118 |
| Clc1ccc(C(c2ccccc2Cl)C(Cl)Cl)cc1 (configuration not stated) [Mitotane] (10000 nM) | 64.2 | 94.9 | 97 | 102 | 102 | 98.7 | 99.2 | 88.2 | 94.9 | 97.4 | 98.7 | 96.2 | 113 | 94.9 | 95.9 | 95.6 | 99.8 | 99.1 |
| S=c1[nH]cnc2nc[nH]c12 [Mercaptopurine] (10000 nM) | 80.5 | 31.8 | 85.5 | 95.3 | 47.3 | 85.8 | 27.3 | 31.6 | 40.7 | 85.8 | 101 | 96.8 | 27.5 | 102 | 56.5 | 94.8 | 35.9 | 85.5 |
| CO[C@H]1C[C@@H]2CC[C@@H](C)[C@@](O)(O2)C(=O)C(=O)N2CCCC[C@H]2C(=O)O[C@H]([C@H](C)C[C@@H]2CC[C@@H](OC(=O)C(C)(CO)CO)[C@H](OC)C2)CC(=O)[C@H](C)/C=C(\C)[C@@H](O)[C@@H](OC)C(=O)[C@H](C)C[C@H](C)/C=C/C=C/C=C/1C [Temsirolimus] (100 nM) | 61 | 66.8 | 67.7 | 88.6 | 67.1 | 53 | 65.4 | 84.3 | 90.2 | 83 | 65.2 | 56.9 | 90.8 | 58.9 | 73.6 | 56.3 | 77.9 | 58.1 |
| CN(C)C/C=C/C(=O)Nc1cc2c(Nc3ccc(F)c(Cl)c3)ncnc2cc1O[C@H]1CCOC1 [Afatinib] (1000 nM) | 96.4 | 89.8 | 93 | 35.1 | 94.5 | 24.8 | 93.5 | 80.2 | 83.4 | 98 | 97.2 | 66.8 | 108 | 63.3 | 100 | 89.1 | 64.3 | 78.6 |
| Cc1c2oc3c(C)ccc(C(=O)N[C@@H]4C(=O)N[C@H](C(C)C)C(=O)N5CCC[C@H]5C(=O)N(C)CC(=O)N(C)[C@@H](C(C)C)C(=O)O[C@@H]4C)c3nc-2c(C(=O)N[C@@H]2C(=O)N[C@H](C(C)C)C(=O)N3CCC[C@H]3C(=O)N(C)CC(=O)N(C)[C@@H](C(C)C)C(=O)O[C@@H]2C)c(N)c1=O [Dactinomycin] (1000 nM) | 9.31 | 25.2 | 11.9 | 2.65 | 3.61 | 1.39 | 33.1 | 12.8 | 2.02 | 17.1 | 11.3 | 4.19 | 7.78 | 16.7 | 3.22 | 1.88 | 24.8 | 52 |
| C=CC[C@@H]1/C=C(\C)C[C@H](C)C[C@H](OC)[C@H]2O[C@@](O)(C(=O)C(=O)N3CCCC[C@H]3C(=O)O[C@H](/C(C)=C/[C@@H]3CC[C@@H](O)[C@H](OC)C3)[C@H](C)[C@@H](O)CC1=O)[C@H](C)C[C@@H]2OC [Tacrolimus] (10000 nM) | 104 | 94.3 | 81.2 | 103 | 94.5 | 89.3 | 105 | 88.5 | 91.5 | 98 | 86.8 | 85.4 | 119 | 101 | 103 | 90.8 | 103 | 103 |
| Nc1nc(Cl)nc2c1ncn2[C@H]1C[C@H](O)[C@@H](CO)O1 [Cladribine] (1000 nM) | 124 | 82.8 | 109 | 102 | 102 | 74.1 | 79 | 74.8 | 88.4 | 77.3 | 92 | 87.9 | 61.2 | 126 | 92.9 | 39.6 | 89.2 | 93.6 |
